Source: ChEMBL document CHEMBL1201862, “PubChem BioAssay data set” (2004)
Calls of active or inactive are those of the source.

Legend:
Cytochrome P450 1A2 = target: T1, Cytochrome P450 1A2 (Homo sapiens, UniProt P05177);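 also: PubChem cytochrome P450 panel assay, CYP1A2 panel member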
T1 sequence (P05177 whole entry): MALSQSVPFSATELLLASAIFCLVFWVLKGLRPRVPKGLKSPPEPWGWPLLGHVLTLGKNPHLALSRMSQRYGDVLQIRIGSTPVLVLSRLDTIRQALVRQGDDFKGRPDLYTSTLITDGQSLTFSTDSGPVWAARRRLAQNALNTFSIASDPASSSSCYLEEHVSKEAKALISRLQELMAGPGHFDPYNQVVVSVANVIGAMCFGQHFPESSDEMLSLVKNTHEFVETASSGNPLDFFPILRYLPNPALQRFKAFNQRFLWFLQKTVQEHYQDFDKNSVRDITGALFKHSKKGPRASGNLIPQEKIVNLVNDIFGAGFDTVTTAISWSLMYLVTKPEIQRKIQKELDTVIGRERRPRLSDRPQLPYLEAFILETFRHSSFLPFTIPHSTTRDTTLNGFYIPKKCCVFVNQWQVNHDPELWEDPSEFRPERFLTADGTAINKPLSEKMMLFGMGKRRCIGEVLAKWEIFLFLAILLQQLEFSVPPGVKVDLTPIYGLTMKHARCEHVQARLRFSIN

Cytochrome P450 3A4 [1] = target: T2, Cytochrome P450 3A4 (Homo sapiens, UniProt P08684);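 also: CYP3A4 tested as one member of a cytochrome P450 panel screen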
T2 sequence (P08684 whole entry): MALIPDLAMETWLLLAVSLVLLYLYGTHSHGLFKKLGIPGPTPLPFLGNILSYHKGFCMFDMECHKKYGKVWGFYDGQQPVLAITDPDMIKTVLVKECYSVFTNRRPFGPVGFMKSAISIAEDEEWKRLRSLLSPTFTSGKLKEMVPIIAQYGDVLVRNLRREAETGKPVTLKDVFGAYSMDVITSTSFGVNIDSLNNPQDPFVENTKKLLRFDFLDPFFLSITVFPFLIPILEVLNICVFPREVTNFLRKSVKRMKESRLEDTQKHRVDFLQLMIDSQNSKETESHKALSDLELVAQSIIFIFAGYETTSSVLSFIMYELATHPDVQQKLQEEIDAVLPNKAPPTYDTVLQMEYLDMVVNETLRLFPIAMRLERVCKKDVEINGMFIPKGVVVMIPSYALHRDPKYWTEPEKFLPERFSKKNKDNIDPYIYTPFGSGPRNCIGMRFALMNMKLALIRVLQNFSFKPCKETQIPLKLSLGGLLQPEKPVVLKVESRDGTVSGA

[2] = target: T3, High affinity choline transporter 1 (Homo sapiens, UniProt Q9GZV3); assay: human choline transporter blockers, potency – cell-based, 5-point CRC, membrane potential dye, dose response (AID 504840); type: functional
T3 sequence (Q9GZV3 whole entry): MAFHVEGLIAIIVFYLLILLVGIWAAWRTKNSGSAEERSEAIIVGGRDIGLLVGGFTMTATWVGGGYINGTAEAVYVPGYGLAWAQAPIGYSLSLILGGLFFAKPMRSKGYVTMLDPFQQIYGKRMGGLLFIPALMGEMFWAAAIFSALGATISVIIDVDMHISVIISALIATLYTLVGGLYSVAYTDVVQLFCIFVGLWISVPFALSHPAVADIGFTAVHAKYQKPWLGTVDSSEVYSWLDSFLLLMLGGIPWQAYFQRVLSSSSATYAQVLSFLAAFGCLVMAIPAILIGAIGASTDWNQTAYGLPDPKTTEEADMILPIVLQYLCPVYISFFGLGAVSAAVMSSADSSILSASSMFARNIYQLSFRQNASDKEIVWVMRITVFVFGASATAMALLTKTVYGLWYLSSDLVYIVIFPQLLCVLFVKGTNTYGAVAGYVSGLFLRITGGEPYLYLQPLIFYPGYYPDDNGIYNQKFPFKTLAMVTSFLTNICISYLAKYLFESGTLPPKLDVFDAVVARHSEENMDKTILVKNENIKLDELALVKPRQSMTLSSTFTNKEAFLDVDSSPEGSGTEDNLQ

Estrogen receptor beta = Estrogen receptor beta (Homo sapiens, UniProt Q92731);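 also: recombinant ER-beta bound to coactivator SRC1 peptide in presence of estradiol agonist; inhibitors block coactivator peptide binding and lower the FRET signal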
Chain of Estrogen receptor beta (Q92731 whole entry, the tested form may be a part): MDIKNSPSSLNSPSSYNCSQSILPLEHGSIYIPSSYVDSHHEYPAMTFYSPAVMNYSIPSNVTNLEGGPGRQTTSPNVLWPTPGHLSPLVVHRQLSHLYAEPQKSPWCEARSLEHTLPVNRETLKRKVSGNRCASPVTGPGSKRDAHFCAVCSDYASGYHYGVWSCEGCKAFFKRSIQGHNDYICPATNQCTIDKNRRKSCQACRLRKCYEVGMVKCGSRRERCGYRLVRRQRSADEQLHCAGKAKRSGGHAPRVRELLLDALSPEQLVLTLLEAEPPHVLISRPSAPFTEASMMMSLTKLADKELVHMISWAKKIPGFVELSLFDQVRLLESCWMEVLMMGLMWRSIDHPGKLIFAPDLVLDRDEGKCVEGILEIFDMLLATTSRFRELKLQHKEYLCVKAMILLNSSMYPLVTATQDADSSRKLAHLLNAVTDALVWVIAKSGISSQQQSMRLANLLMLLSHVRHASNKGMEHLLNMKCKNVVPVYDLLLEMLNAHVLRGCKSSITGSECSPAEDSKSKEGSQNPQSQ

[3] = blockers of HIV-1 envelope-mediated cell-cell fusion – cherry-pick, dose response (AID 652057); type: functional, cell-based
[4] = blockers of HIV-1 ZM109 envelope-driven cell-cell fusion – HeLa effector, CEM target cells, luciferase, cherry-pick, dose response (AID 652058); type: functional, cell-based;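 also: luciferase signal from HIV-1 Env mediated cell-cell fusion of effector and target cells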
[5] = HIV-1 AD8 envelope cell-cell fusion blockers – cherry-pick, dose response (AID 652062); type: functional, cell-based;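 also: luciferase signal from cell-cell fusion driven by HIV-1 clade B AD8 Env; potency is for inhibitors of fusion seen as a drop in luminescence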
Paired box protein Pax-8 = Paired box protein Pax-8 (Homo sapiens, UniProt Q06710); assay: PAX8 transcriptional activity inhibition in RMG-I – RMG-I cells, luciferase, cherry-pick, dose response (AID 687027); type: functional, cell-based;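 also: luciferase reporter driven by Pax8 target thyroperoxidase promoter measured by SteadyGlo luminescence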
[6] = OVCAR8 cell viability loss – plate reader, dry powder samples, PAX8 project, dose response (AID 743197); type: functional, cell-based; conditions: OVCAR-8
[7] = target: T4, Voltage-gated N-type calcium channel alpha-1B subunit/Amyloid beta A4 precursor protein-binding family A member 1 (Homo sapiens, UniProt Q00975+Q02410); type: protein assay
T4 sequence (Q00975 whole entry): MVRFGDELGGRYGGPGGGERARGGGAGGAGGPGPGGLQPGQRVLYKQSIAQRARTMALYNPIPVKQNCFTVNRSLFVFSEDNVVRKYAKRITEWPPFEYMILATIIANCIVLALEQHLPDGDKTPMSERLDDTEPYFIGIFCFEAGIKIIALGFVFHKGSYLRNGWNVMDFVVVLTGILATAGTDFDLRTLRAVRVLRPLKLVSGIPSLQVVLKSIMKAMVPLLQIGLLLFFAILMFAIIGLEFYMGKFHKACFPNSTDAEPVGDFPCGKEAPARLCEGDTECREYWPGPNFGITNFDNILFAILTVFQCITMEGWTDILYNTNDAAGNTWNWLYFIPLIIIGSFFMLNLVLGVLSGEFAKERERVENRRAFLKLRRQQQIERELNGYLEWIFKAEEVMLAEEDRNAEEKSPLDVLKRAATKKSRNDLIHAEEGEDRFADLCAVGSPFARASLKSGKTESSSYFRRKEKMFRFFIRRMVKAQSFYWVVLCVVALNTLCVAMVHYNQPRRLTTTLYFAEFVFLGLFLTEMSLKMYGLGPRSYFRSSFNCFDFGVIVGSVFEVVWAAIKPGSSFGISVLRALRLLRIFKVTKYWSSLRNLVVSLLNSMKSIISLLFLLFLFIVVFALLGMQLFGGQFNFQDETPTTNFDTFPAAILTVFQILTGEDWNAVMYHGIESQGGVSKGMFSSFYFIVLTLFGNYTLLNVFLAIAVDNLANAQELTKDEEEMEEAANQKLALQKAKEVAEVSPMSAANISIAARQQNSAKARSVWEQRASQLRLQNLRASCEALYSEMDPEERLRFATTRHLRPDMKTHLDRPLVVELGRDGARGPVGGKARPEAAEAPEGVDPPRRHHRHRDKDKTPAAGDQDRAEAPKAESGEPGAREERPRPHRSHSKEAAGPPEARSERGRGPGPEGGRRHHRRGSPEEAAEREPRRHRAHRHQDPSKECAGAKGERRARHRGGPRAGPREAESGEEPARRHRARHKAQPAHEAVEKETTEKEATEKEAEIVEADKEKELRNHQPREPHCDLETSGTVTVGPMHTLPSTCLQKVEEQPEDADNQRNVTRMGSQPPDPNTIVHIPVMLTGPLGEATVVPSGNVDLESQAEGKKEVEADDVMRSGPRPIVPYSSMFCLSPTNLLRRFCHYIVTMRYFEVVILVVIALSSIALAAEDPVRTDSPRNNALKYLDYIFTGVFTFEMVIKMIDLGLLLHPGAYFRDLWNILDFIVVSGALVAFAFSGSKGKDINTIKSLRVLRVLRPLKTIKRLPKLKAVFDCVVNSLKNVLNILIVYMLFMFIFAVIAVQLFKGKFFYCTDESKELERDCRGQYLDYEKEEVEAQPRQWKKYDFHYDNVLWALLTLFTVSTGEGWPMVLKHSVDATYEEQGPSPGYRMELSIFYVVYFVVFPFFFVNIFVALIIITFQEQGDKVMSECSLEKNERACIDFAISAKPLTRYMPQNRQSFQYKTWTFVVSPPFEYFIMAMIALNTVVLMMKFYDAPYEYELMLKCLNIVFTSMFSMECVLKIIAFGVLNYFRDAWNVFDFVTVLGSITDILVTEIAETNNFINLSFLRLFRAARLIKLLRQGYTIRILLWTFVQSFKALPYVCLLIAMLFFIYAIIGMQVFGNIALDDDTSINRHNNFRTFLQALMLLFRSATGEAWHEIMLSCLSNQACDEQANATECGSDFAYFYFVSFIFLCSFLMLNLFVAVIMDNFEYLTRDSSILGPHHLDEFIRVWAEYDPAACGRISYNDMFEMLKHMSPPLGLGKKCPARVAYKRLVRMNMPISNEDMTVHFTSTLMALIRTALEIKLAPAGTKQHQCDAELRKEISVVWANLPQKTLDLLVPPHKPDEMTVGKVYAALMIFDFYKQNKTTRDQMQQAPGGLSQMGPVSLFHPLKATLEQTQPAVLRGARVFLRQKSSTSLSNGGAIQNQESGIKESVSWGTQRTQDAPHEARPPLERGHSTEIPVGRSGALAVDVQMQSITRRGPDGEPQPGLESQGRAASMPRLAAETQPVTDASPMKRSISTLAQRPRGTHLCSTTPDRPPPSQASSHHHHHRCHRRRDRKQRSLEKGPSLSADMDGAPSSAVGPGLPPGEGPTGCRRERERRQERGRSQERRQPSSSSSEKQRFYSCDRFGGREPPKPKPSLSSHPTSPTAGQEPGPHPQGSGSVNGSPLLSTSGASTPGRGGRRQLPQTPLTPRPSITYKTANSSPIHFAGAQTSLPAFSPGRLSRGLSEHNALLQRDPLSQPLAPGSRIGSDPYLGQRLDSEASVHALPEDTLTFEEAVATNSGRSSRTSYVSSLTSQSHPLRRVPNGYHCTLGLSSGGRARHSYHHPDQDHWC
T4 sequence (Q02410 whole entry): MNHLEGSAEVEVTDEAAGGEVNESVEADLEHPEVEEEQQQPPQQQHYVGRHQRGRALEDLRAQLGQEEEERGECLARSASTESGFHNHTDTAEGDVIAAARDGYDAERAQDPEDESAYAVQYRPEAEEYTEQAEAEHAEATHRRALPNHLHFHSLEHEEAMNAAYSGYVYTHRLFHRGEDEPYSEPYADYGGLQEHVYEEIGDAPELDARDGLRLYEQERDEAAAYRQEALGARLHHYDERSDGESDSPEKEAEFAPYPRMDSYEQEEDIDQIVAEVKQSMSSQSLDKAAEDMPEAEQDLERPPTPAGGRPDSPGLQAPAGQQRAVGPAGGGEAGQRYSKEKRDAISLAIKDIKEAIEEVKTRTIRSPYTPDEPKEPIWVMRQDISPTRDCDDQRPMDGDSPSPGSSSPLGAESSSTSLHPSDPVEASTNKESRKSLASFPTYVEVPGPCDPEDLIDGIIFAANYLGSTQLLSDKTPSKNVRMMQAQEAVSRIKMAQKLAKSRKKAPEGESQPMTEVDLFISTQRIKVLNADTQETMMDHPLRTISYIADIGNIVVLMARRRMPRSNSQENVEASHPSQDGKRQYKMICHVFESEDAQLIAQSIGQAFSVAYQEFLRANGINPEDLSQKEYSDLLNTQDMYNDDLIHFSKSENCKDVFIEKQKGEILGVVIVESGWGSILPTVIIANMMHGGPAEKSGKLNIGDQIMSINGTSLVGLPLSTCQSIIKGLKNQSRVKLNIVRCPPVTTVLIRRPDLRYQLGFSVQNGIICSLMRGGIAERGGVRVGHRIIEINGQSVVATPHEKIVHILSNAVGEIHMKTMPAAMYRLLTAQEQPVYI

[8] = target: T4, Voltage-gated N-type calcium channel alpha-1B subunit/Amyloid beta A4 precursor protein-binding family A member 1; type: protein assay; remark: listed apart in the source
[9] = target: T5, Carboxy-terminal domain RNA polymerase II polypeptide A small phosphatase 1 (Homo sapiens, UniProt Q9GZU7); assay: CTDSP1 inhibitors, concentration-response, biochemical, absorbance readout, ultra-high-throughput screen actives (AID 540297); type: functional
T5 sequence (Q9GZU7 whole entry): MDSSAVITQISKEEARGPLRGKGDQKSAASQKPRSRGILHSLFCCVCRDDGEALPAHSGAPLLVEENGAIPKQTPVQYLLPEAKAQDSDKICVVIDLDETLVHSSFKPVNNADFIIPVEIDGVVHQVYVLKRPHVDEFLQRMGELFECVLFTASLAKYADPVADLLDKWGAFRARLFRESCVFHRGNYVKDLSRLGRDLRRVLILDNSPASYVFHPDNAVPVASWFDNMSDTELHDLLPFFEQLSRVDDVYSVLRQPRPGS

[10] = target: Eukaryotic translation initiation factor 4E (Mus musculus, UniProt P63073); assay: blockers of eIF4G binding by eIF4E – biochemical, TR-FRET, dose response (AID 855); type: functional;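 also: potency for disrupting eIF4E binding to eIF4GI seen as loss of FRET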
Chain of Eukaryotic translation initiation factor 4E (P63073 whole entry): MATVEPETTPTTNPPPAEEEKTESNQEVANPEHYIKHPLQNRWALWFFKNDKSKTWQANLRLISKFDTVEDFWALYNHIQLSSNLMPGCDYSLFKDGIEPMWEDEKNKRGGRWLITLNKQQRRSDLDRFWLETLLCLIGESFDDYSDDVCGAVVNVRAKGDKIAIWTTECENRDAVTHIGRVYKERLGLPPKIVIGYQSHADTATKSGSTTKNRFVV

Cytochrome P450 3A4 [11] = target: T2, Cytochrome P450 3A4; remark: listed apart in the source
Cytochrome P450 2C9 = Cytochrome P450 2C9 (Homo sapiens, UniProt P11712)
Cytochrome P450 2C19 = Cytochrome P450 2C19 (Homo sapiens, UniProt P33261); assay: Cytochrome panel assay with activity outcomes. Panel member name: p450-cyp2c19 Compounds with AC50 equal or less than 10 uM are considered active; type: functional; conditions: read-out: AC50
Chain of Cytochrome P450 2C19 (P33261 whole entry): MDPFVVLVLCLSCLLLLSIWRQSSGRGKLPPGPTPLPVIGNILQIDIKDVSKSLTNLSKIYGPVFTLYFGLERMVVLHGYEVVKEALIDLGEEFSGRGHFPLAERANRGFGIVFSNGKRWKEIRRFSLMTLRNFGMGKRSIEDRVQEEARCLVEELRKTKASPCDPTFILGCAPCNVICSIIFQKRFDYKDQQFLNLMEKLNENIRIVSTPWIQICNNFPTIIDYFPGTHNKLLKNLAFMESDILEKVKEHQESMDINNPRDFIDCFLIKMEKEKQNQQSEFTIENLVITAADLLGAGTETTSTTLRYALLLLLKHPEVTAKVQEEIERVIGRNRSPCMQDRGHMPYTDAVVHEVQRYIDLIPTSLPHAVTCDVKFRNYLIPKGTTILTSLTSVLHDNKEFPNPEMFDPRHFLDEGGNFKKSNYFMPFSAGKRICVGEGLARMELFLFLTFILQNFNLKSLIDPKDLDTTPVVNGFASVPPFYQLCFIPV

[12] = viability of uninfected HEp-2 cells – cell-based, HTS, cytotoxicity control for RSV inhibitor project, dose response (AID 2410); type: functional; conditions: human respiratory syncytial virus
Vero [13] = assay: cells; type: functional, cell-based; conditions: Chlorocebus sabaeus
[14] = A549 cell cytotoxicity, dose response, cytotoxicity control, plate reader, cherry-pick, antagonist series (AID 743412); type: functional, cell-based
[15] = blockers of bursicon-stimulated LGR2 cAMP reporter – cell-based, HEK293, CRE-luciferase reporter, cherry pick, set 2, dose response (AID 743343); type: functional;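 also: transfected cells were stimulated with diluted bursicon conditioned medium after compound addition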
[16] = blockade of melanocortin 4 receptor signaling – cell-based, plate reader, cherry pick, counter-screen for LGR2 antagonist project, dose response (AID 743444); type: functional;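 also: transfected HEK 293 cells stimulated with alpha-MSH peptide; potency of inhibitors of the alpha-MSH evoked signal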
Vero [17] = assay: cells; type: functional; conditions: Chlorocebus sabaeus

For CC(C)n1cnc2c(C(=O)N[C@H]3CN4CCC3CC4)cc(Cl)cc21, the AC50 (Cytochrome P450 1A2) was 39.8 µM (inconclusive) and the AC50 (Cytochrome P450 3A4 [1]) was “inconclusive”.
For C=CCSc1nc2ccccc2n1Cc1nnc(-c2cccs2)o1, the IC50 [2] was 0.457 µM (active).
For O=C(C[n+]1cccc(Br)c1)c1cccs1, the IC50 [2] was 13.2 µM (active).
With N#Cc1ccc(C2=NC(C(F)(F)F)(C(F)(F)F)c3c(n(Cc4ccco4)c(=O)[nH]c3=O)N2)cc1 the AC50 (Cytochrome P450 3A4 [1]) was “inconclusive”.
With CC1CCCC(C)N1C(=O)Nc1cccc(Cl)c1 (stereo unspecified) the IC50 (Estrogen receptor beta) was > 50 µM (not active).
For CO[C@@H]1CN(C)C(=O)c2cc(NS(=O)(=O)c3cn(C)cn3)ccc2OC[C@@H](C)N(Cc2ccc(C(F)(F)F)cc2)C[C@H]1C, the AC50 [3] was 2.32 µM (active), the AC50 [4] was 1.91 µM (active) and the AC50 [5] was 4.85 µM (active).
In the case of Cc1cc2ccccn2c1C(=O)c1ccc(Cl)cc1, the AC50 (Cytochrome P450 3A4 [1]) is reported as “inconclusive”.
In the case of Cc1ccc(S(=O)(=O)N(C)C[C@@H]2OCCCC[C@@H](C)Oc3ccc(NS(=O)(=O)c4ccc(Cl)cc4)cc3C(=O)N([C@H](C)CO)C[C@H]2C)cc1, the AC50 (Paired box protein Pax-8) is reported as 4.4 µM (active) and the AC50 [6] is reported as > 70 µM (inactive).
In the case of Cc1cc(C(=O)O)ccc1-c1ccc(/C=C2\SC(=O)N(CC(=O)Nc3ccc4c(c3)OCO4)C2=O)o1, the IC50 [7] is reported as 17.5 µM (active) and the IC50 [8] is reported as > 50 µM (inactive).
With COc1ccc(-c2cn3ccsc3n2)cc1 the IC50 (Estrogen receptor beta) was > 50 µM (not active).
With CC(=O)c1ccccc1NS(=O)(=O)c1cccc2nsnc12 the IC50 [9] was 4.66 µM (active).
For Cc1cccn2c(=O)c3cc(C#N)/c(=N\C(=O)c4ccco4)n(Cc4ccco4)c3nc12, the IC50 [9] was > 80 µM (inactive).
With O=C(CCNS(=O)(=O)c1cccs1)N1CCCCCC1 the IC50 [10] was > 64 µM (inactive), the AC50 (Cytochrome P450 3A4 [11]) was 20 µM (inconclusive) and the AC50 (Cytochrome P450 2C9) was 28.2 µM (inconclusive).
In the case of C[C@](O)(c1ccccc1)c1nccc2ccccc12, the AC50 (Cytochrome P450 2C19) is reported as 3.98 µM (inconclusive) and the AC50 (Cytochrome P450 3A4 [1]) is reported as “inconclusive”.
With CC1CCC(C(C)C)C(OC(=O)COC(=O)c2ccc(N)cc2)C1 (stereo unspecified) the IC50 [10] was > 64 µM (inactive).
For COc1cc2c(cc1NC(=O)c1ccc(C(C)(C)C)cc1)CCCC2, the CC50 [12] was 18.2 µM (active) and the IC50 (Vero [13]) was 8.78 µM (active).
For Cc1ccc(-n2nc(C)c(/C=N/n3c(C)nc4ccccc4c3=O)c2O)cc1, the IC50 (Estrogen receptor beta) was > 50 µM (not active).
For CC(C)CCn1cnc2c(oc3nc4c(cc32)CCCC4)c1=O, the AC50 [14] was > 52 µM (inactive), the AC50 [15] was 4.92 µM (active) and the AC50 [16] was 3.8 µM (active).
With CN1CCN(c2ccc3sc(-n4ccc5ccccc54)nc3c2)CC1 the IC50 (Vero [13]) was 22.7 µM (active) and the CC50 (Vero [17]) was > 25 µM (active).
In the case of COc1ccccc1NC(=O)c1ccc(S(=O)(=O)N(C)C)cc1, the IC50 [10] is reported as > 64 µM (inactive).
For O=C(O)c1cccnc1C(=O)O [QUINOLINIC ACID], the AC50 (Cytochrome P450 3A4 [1]) was “inconclusive”.
For O=C(CSc1nnc(-c2ccco2)n1Cc1ccco1)NCc1cccs1, the IC50 [2] was 9.55 µM (active).
With CC(Oc1ccccc1F)C(=O)Nc1ccc2ccccc2c1 (stereo unspecified) the IC50 (Vero [13]) was > 6.25 µM (active).
For Cc1oc(-c2ccc(Cl)cc2)nc1CN1CCC(C(=O)NCc2ccco2)CC1, the IC50 [10] was > 64 µM (inactive).
